Some test systems named below: SN12C renal; SK-OV-3 ovarian; SK-MEL-5 melanoma; CAKI-1 renal; SK-MEL-2 melanoma; HS 578T breast; NCI-H522 lung; RPMI-8226 leukemia; MALME-3M melanoma; COLO 205 colon.
Test in all cases: inhibition of tumour cell growth, NCI panel, 48 h

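1) Cells in 96-well plates. 2) Compound, 48 h, 5 concentrations. 3) Linear interpolation between surrounding doses. 4) Unreached endpoint = highest concentration. TGI is the concentration that stops growth completely.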 Bounds are passed on as bounds.

Results on 13 molecules are retold here after PubChem BioAssay (NCI).

For `Cc1ccc(/C=C2\CN(C)CC3C(c4ccc(C)cc4)=C(C#N)C(=O)NC23)cc1` (stereo unspecified), the TGI with SN12C renal, in the assay on SK-OV-3 ovarian, in the assay on SK-MEL-5 melanoma, with CAKI-1 renal, in the assay with SK-MEL-2 melanoma and in the assay on HS 578T breast was more than 50 µM each time. In addition, the TGI with NCI-H522 lung, in the assay with RPMI-8226 leukemia, in the assay with MALME-3M melanoma and with COLO 205 colon was more than 50 µM in each case.

As to `CC(O)c1c2c(cc3c1CC1(C3)Cc3cc4c(c(C(C)O)c3C1)CCC4)CCC2` (stereo unspecified), the TGI with SN12C renal was determined as 32 µM; in the assay with SK-OV-3 ovarian, 60.8 µM; in the assay on SK-MEL-5 melanoma, 25.6 µM; in the assay with SK-MEL-2 melanoma, 43.3 µM; in the assay with HS 578T breast, 52.8 µM; with NCI-H522 lung, 30 µM. The figures for the TGI in the assay on RPMI-8226 leukemia, with MALME-3M melanoma and with COLO 205 colon were 38.5 µM, 34.5 µM and 28.6 µM, respectively.

Consider `O/N=c1/ccn(O)c2ccccc12`, for which the TGI was 5.7 µM in the assay with SN12C renal; 3.26 µM with SK-OV-3 ovarian; 2.77 µM in the assay on SK-MEL-5 melanoma; 5.99 µM in the assay on CAKI-1 renal; 3.64 µM with SK-MEL-2 melanoma; more than 100 µM in the assay with HS 578T breast. The TGI with NCI-H522 lung is 3.23 µM; with RPMI-8226 leukemia, 0.542 µM; in the assay with MALME-3M melanoma it was 18.9 µM; in the assay with COLO 205 colon it was 4.74 µM.

For `ClC(Cl)(Cl)C1CCOC1n1nc2ccccc2n1` (stereo unspecified), the TGI in the assay with SN12C renal, with SK-OV-3 ovarian, in the assay with SK-MEL-5 melanoma, in the assay with CAKI-1 renal, in the assay with SK-MEL-2 melanoma and in the assay on HS 578T breast was more than 100 µM each time. The TGI in the assay on NCI-H522 lung, in the assay on MALME-3M melanoma and with COLO 205 colon was more than 100 µM in each case.

`CSCCC(NCc1c(O)ccc2ccc(=O)oc12)C(=O)O` (stereo unspecified): the TGI in the assay with SN12C renal, in the assay on SK-OV-3 ovarian, in the assay on SK-MEL-5 melanoma, in the assay with CAKI-1 renal, in the assay on SK-MEL-2 melanoma and in the assay on HS 578T breast was more than 100 µM throughout. Moreover, the TGI in the assay on NCI-H522 lung, in the assay on RPMI-8226 leukemia, with MALME-3M melanoma and in the assay on COLO 205 colon was more than 100 µM in each case.

Consider `COc1c(Cl)ccc(Cl)c1C(=O)NNC(=O)c1c(Cl)c(Cl)c(Cl)c(Cl)c1-c1nc2ccc(C(=O)c3ccccc3)cc2[nH]1`, for which the TGI in the assay with SN12C renal, with SK-OV-3 ovarian, in the assay with SK-MEL-5 melanoma, with CAKI-1 renal, in the assay with SK-MEL-2 melanoma and in the assay with HS 578T breast was more than 100 µM throughout. Also, the TGI was more than 100 µM with NCI-H522 lung, 90.8 µM in the assay with RPMI-8226 leukemia, more than 100 µM with MALME-3M melanoma and more than 100 µM in the assay on COLO 205 colon.

As to `N=C(/C=C/c1ccc(-c2cn3cc(/C=C/C(=N)N4CCCC4)ccc3n2)cc1)N1CCCC1`, the TGI in the assay on SN12C renal, in the assay with SK-OV-3 ovarian, in the assay with SK-MEL-5 melanoma, in the assay on CAKI-1 renal, with SK-MEL-2 melanoma and in the assay on HS 578T breast was more than 100 µM throughout. Besides, the TGI with NCI-H522 lung, with RPMI-8226 leukemia, with MALME-3M melanoma and in the assay on COLO 205 colon was more than 100 µM in each case.

`Cc1c2c(c(C)n1-c1ccccc1)C(=O)N(CCSC(=N)N)C2=O`: the TGI with SN12C renal, in the assay with SK-OV-3 ovarian, in the assay with SK-MEL-5 melanoma, with CAKI-1 renal, in the assay on SK-MEL-2 melanoma and in the assay with HS 578T breast was more than 100 µM throughout. The TGI with NCI-H522 lung, in the assay on RPMI-8226 leukemia, in the assay on MALME-3M melanoma and in the assay with COLO 205 colon was more than 100 µM throughout.

In the case of `N#C/C(=C1\N=C(c2ccccc2O)Oc2ccccc21)c1ccc([N+](=O)[O-])cc1`, the TGI in the assay on SN12C renal, in the assay with SK-OV-3 ovarian, with SK-MEL-5 melanoma, in the assay on CAKI-1 renal, in the assay on SK-MEL-2 melanoma and in the assay on HS 578T breast was more than 100 µM in each case. In addition, the TGI in the assay on RPMI-8226 leukemia, in the assay with MALME-3M melanoma and with COLO 205 colon was more than 100 µM each time.

Take `CCOC(=O)N1CCN(Cc2cc(=O)n3cc(C)ccc3n2)CC1`: the TGI in the assay with SN12C renal, with SK-OV-3 ovarian, in the assay on CAKI-1 renal, in the assay on SK-MEL-2 melanoma, in the assay on HS 578T breast and in the assay with NCI-H522 lung was more than 100 µM in each case. Also, the TGI with RPMI-8226 leukemia, with MALME-3M melanoma and in the assay with COLO 205 colon was more than 100 µM in each case.

For the molecule `O=C(O)CCC(NC(=O)c1ccc(Nc2nc3ccccc3nc2C(=O)O)cc1)C(=O)O` (stereo unspecified), the TGI in the assay on SN12C renal, in the assay with SK-OV-3 ovarian, with SK-MEL-5 melanoma, in the assay with CAKI-1 renal, with SK-MEL-2 melanoma and in the assay with HS 578T breast was more than 100 µM each time. Also, the TGI in the assay with NCI-H522 lung, with RPMI-8226 leukemia, with MALME-3M melanoma and in the assay on COLO 205 colon was more than 100 µM throughout.

On to `O=C(NCCN1C(=O)CN=C(c2ccc(Cl)cc2)c2cc(Cl)ccc21)OCc1ccccc1`, for which the TGI is 28.7 µM in the assay with SN12C renal; more than 100 µM with SK-OV-3 ovarian; 30.2 µM in the assay with SK-MEL-5 melanoma; 31.9 µM in the assay on CAKI-1 renal; 36 µM with SK-MEL-2 melanoma; 40.7 µM in the assay on HS 578T breast. Further, the TGI with NCI-H522 lung amounted to 49.9 µM; with RPMI-8226 leukemia it was 53.9 µM; in the assay on MALME-3M melanoma it was 31.6 µM; with COLO 205 colon, 50.4 µM.

Consider `O=[N+]([O-])c1ccc(Cl)cc1-n1nc(-c2ccccc2)cc1-c1ccccc1`, for which the TGI in the assay with SN12C renal, in the assay with SK-OV-3 ovarian, with SK-MEL-5 melanoma, with CAKI-1 renal, in the assay with SK-MEL-2 melanoma and in the assay on HS 578T breast was more than 100 µM in each case. In addition, the TGI in the assay with NCI-H522 lung, in the assay on RPMI-8226 leukemia, in the assay on MALME-3M melanoma and with COLO 205 colon was more than 100 µM each time.
